Test results taken from patent publication US20240342238A1, “PEPTIDE HAVING OBESITY AND MUSCLE LOSS INHIBITORY ACTIVITIES, AND USE THEREOF” (Korea University Research and Business Foundation, priority 2021, published 2024).

Assays:
[1] = tested on: S6; test: S6 phosphorylation in L6 skeletal muscle cells (Western blot); type: cell-based; details: 100 nM, 1 hour; for phosphorylation of S6 (in words): FIG. 9
Procedure: (§1) The effect of the peptide of the present invention on muscles was confirmed. After culturing L6 skeletal muscle cells in a 6-well plate, the cells were starved with 0.5% FBS. Afterward, 100 nM of each peptide was treated for 1 hour, and proteins were collected and subjected to Western blot.

[2] = tested on: adipocyte protein 2 (AP2); test: AP2 gene expression in muscle tissue of db/db mouse model (RT-PCR); type: in vivo; details: muscle tissue of db/db mice, 2.5 mg/kg i.p. daily, 8 weeks
Procedure: (§2) The obesity-improving effect of a peptide was confirmed by inducing body weight gain in an animal model in which diabetes was induced due to the defect in a leptin receptor. Specifically, C57BLKS/J-db/db 5-week-old male mice were purchased from the Central Laboratory Animal Inc., provided with a normal diet for one week, and used after an acclimation period. The breeding environment was maintained at 18 to 24° C. and a humidity of 50 to 60%, and during the acclimation period and the experimental period, free feeding was implemented with free access to normal feed and water.
(§3) The mice that underwent the acclimation period were divided into a control and a peptide-treated group. The control group was administered PBS, and the peptide-treated group was administered Peptide No. 7 or 8 (2.5 mg/kg) intraperitoneally every day for a total of 8 weeks.
(§4) As a result of RT-PCR, it was confirmed that, by the treatment of Peptide No. 7 or 8, the expression of adipocyte protein 2 (AP2) and CCAAT enhancer binding protein α (C/EBPα) genes, which are involved in lipid accumulation, was reduced, and the expression of a peroxisome proliferator-activated receptor α (PPARα) gene, involved in fatty acid oxidation, was increased. […]

[3] = tested on: peroxisome proliferator-activated receptor α (PPARα); test: PPARα gene expression in muscle tissue of db/db mouse model (RT-PCR); type: in vivo; details: muscle tissue of db/db mice, 2.5 mg/kg i.p. daily, 8 weeks
Procedure: as §2, §3, §4

[4] = tested on: CCAAT enhancer binding protein α (C/EBPα); test: C/EBPα gene expression in muscle tissue of db/db mouse model (RT-PCR); type: in vivo; details: muscle tissue of db/db mice, 2.5 mg/kg i.p. daily, 8 weeks
Procedure: as §2, §3, §4

[5] = tested on: Muscle RING Finger-1 (Murf-1); test: Murf-1 gene expression in muscle tissue of db/db mouse model (RT-PCR); type: in vivo; details: muscle tissue of db/db mice, 2.5 mg/kg i.p. daily, 8 weeks
Procedure: as §2, §3, §4

[6] = tested on: FoxO1; test: FoxO1 phosphorylation and total FoxO1 in L6 skeletal muscle cells (Western blot); type: cell-based; details: 100 nM, 1 hour
Procedure: as §1

## AGSIREAGGAFGKREQAEEERYFR (listed as Homo sapiens) [No. 7]
[1]
  phosphorylation of S6 (in words): increased
[2]
  change in AP2 gene expression: −52.5%
[3]
  change in PPARα gene expression: +94.1%
[4]
  change in C/EBPα gene expression: −18.6%
[5]
  change in Murf-1 gene expression: −90.1%

## AQSREQLAALKK (listed as Homo sapiens) [No. 5]
[1]
  increase of phosphorylation of the S6 protein: 494%

## EQAEEER (listed as Homo sapiens) [No. 2]
[1]
  increase of phosphorylation of the S6 protein: 365%

## EQAEEERYFR (listed as Homo sapiens) [No. 4]
[1]
  increase of phosphorylation of the S6 protein: 224%

## REAGGAFGKR (listed as Homo sapiens) [No. 3]
[1]
  phosphorylation of S6 (in words): increased

## VDRGAGSIREAGGAFGKREQAEEERYFR (listed as Homo sapiens) [No. 8]
[1]
  increase of phosphorylation of the S6 protein: 414%
[2]
  change in AP2 gene expression: −54.7%
[3]
  change in PPARα gene expression: +12.9%
[4]
  change in C/EBPα gene expression: −45.5%
[5]
  change in Murf-1 gene expression: −36.0%

## YFR (listed as Homo sapiens) [No. 1]
[1]
  increase of phosphorylation of the S6 protein: 188%
[6]
  expression level of total FoxO1: decreased
  phosphorylation of FoxO1: increased

## YFRAQSREQLAALKKHH (listed as Homo sapiens) [No. 6]
[1]
  phosphorylation of S6 (in words): increased
